# Experiments:
# Type in all cases: cell-based, human
# SF-295 = assay: NCI single-dose GI%, CNS; conditions: SF-295, CNS; 10.0 μM in one dose
# HCT-116 = assay: NCI single-dose GI%, colon; conditions: HCT-116, colon; 10.0 μM in one dose
# NCI-H226 = assay: NCI single-dose GI%, NSC lung; conditions: 10.0 μM in one dose
# EKVX = assay: NCI single-dose GI%, NSC lung; conditions: 10.0 μM in one dose
# MOLT-4 = assay: NCI single-dose GI%, leukemia; conditions: MOLT-4, leukemia; 10.0 μM in one dose
# HCT-15 = assay: NCI single-dose GI%, colon; conditions: HCT-15, colon; 10.0 μM in one dose
# DU-145 = assay: NCI single-dose GI%, prostate; conditions: DU-145, prostate; 10.0 μM in one dose
# 59 cancer cell lines = assay: NCI 59 cancer cell line panel, single dose; conditions: for MG% (mean growth percent): 10 μM single dose, 59 cell lines
# RPMI-8226 = assay: NCI single-dose GI%, leukemia; conditions: RPMI-8226, leukemia; 10.0 μM in one dose
# MDA-MB-231/ATCC = assay: NCI single-dose GI%, breast; conditions: 10.0 μM in one dose
# A498 = assay: NCI single-dose GI%, renal; conditions: 10.0 μM in one dose
# PC-3 = assay: NCI single-dose GI%, prostate; conditions: PC-3, prostate; 10.0 μM in one dose
# NCI-H23 = assay: NCI single-dose GI%, NSC lung; conditions: 10.0 μM in one dose
# MDA-MB-468 = assay: NCI single-dose GI%, breast; conditions: MDA-MB-468, breast; 10.0 μM in one dose
# SR = assay: NCI single-dose GI%, leukemia; conditions: 10.0 μM in one dose
# SF-539 = assay: NCI single-dose GI%, CNS; conditions: SF-539, CNS; 10.0 μM in one dose
# T-47D = assay: NCI single-dose GI%, breast; conditions: 10.0 μM in one dose
# LOX IMVI = assay: NCI single-dose GI%, melanoma; conditions: 10.0 μM in one dose
# HT29 = assay: NCI single-dose GI%, colon; conditions: 10.0 μM in one dose
# U251 = assay: NCI single-dose GI%, CNS; conditions: 10.0 μM in one dose
structure (smiles),measurement,setting,value
"Cc1ccc(NC(=O)c2ccc(CN3CCN(C)CC3)cc2)cc1Nc1nccc(-c2cccnc2)n1 [Imatinib, reference compound]",GI%,SF-295,15.1%
same,GI%,HCT-116,18.6%
same,GI%,NCI-H226,10.6%
same,GI%,EKVX,15.7%
same,GI%,MOLT-4,18%
same,GI%,HCT-15,11.5%
same,GI%,DU-145,14.4%
same,MG% (mean growth percent),59 cancer cell lines,92.62%
same,MG% (mean growth percent),59 cancer cell lines; listed as imatinib,92.62%
same,"GI% range, CNS cancer","59 cancer cell lines; CNS cancer subpanel, 10 μM",11–25%
same,"GI% range, NSCLC","59 cancer cell lines; NSCLC subpanel, 10 μM",11–17%
same,GI% range against most of the cancer cell lines tested,"59 cancer cell lines; all subpanels, 10 μM",< 10–47%
same,"GI% range, breast cancer","59 cancer cell lines; breast cancer subpanel, 10 μM",11–29%
same,"GI% range, colon cancer","59 cancer cell lines; colon cancer subpanel, 10 μM",12–47%
same,"GI% range, leukemia","59 cancer cell lines; leukemia subpanel, 10 μM",13–18%
same,"GI% range, melanoma","59 cancer cell lines; melanoma subpanel, 10 μM",12–22%
same,"GI% range, ovarian cancer","59 cancer cell lines; ovarian cancer subpanel, 10 μM",< 10%
same,"GI% range, prostate cancer","59 cancer cell lines; prostate cancer subpanel, 10 μM",11–14%
same,"GI% range, renal cancer","59 cancer cell lines; renal cancer subpanel, 10 μM",< 10–14%
same,GI%,RPMI-8226,12.6%
same,GI%,MDA-MB-231/ATCC,11.2%
same,GI%,A498,13.7%
same,GI%,PC-3,10.6%
same,GI%,NCI-H23,17.1%
same,GI%,MDA-MB-468,29.1%
same,GI%,SR,14.6%
same,GI%,SF-539,24.5%
same,GI%,T-47D,18.6%
same,GI%,LOX IMVI,11.6%
same,GI%,HT29,47.1%
same,GI%,U251,10.6%
